Experimental data reported in patent US6448392B1, “Lipid derivatives of antiviral nucleosides: liposomal incorporation and method of use” (Chimerix, Inc., priority 1985, dated 2002).
Several values for one entry are separate records, joined by “and”; a condition that tells them apart may be missing. Equal values may be shown once. Where a name gives a salt, the structure may show the parent alone. Read-outs that look alike come from different tables or passages of the source.

Assays:
[1] = tested on: HIV (LAV-1); assay: HIV plaque formation in HT4-6C cells (CD4+ HeLa cells) infected with LAV-1; type: cell-based
Protocol: In this experiment the compound of Example 7 (1-O- stearoylglycero-rac-3-phospho-5′-(3′-deoxy, 3′-azido)thymidine) was incorporated into liposomes containing 10 mole percent of the liponucleotide as indicated in Example 8. This material was diluted with RPMI medium to the desired concentration and added to HT4-6C cells (CD4+ HeLa cells) obtained from Dr. Bruce Chesbro of the Rocky Mountain National Laboratories (Hamilton, Mont.) which had been infected with LAV-1 as noted earlier in this example. After a 3 day incubation at 37° C., the cells were washed with PBS, fixed and stained with crystal violet and the plaques were counted.
PalmitoylAZT was incorporated into liposomes as noted in Example 8 and incubated with LAV-1 infected HT4-6C cells as noted in Examples 10 and 11. 0.8 uM palmitoylAZT inhibited plaque formation by 25% (134 plaques versus 176 in the untreated control).

[2] = tested on: HSV-1; assay: Herpes simplex virus plaque reduction assay, HSV-1 in Wi-38 cells; type: cell-based, Herpes simplex virus type 1; details: for IC50: HSV-1 infected Wi-38 cells, plaque reduction, read-out: concentration which produces 50% inhibition
Protocol: Wi-38 cells were obtained from American Type Culture Collection (Rockville, Md. 20852) and grown in Dulbecco's minimum essential medium (DMEM) with 10% fetal calf serum (FCS). The cells were grown in 250 cm square bottles until reaching confluence.
Herpes simplex virus (HSV) type 1 (HSV-1) and type 2 (HSV-2) were obtained from the American Type Culture Collection. Both virus stocks were prepared in Wi-38 cells; extensive cytopathic effects (CPD) were observed when the stock virus was harvested by a single freezing and thawing and the cell debris was clarified by low speed centrifugation (2000 rpm). Supernatant fluids containing the virus were aliquoted into small vials and stored at −80° C. Both HSV-1 and HSV-2 stocks were titered in Wi-38 cells before use in the experiments.
The plaque reduction assay was used to measure the antiviral effect of phosphatidylacyclovir or free ACV. Wi-38 cells were trypsinized with 0.25% trypsin for 5 min. The cells were harvested and centrifuged to remove residual trypsin and the cell pellet was resuspended in DMEM with 10% FCS. The Wi-38 cells were plated in a 96 well plate ([…] cells/well) for one hour. The infected cells were then treated with phosphatidylacyclovir or ACV. The antiviral agents were prepared in stock solutions which were then diluted two-fold with 2% FBS in DMEM containing 0.5% methylcellulose. 100 μl of each diluted antiviral agent was added into each well of HSV infected cells.
The control and drug-treated cell cultures were incubated in a 37° C. incubator with 5% carbon dioxide for 24 hours. […] The dye was rinsed off with tap water and the plate was dried and plaques were counted. The antiviral effect of ACV or phosphatidylacyclovir was determined by measurement of plaque reduction as shown in the example below.

[3] = tested on: HIV (LAV-1 strain); type: cell-based; details: for inhibition of HIV p24 production: Experiment H747-1b, CEM cells; for EC50: CEM wild type
Protocol: 6.42 micromoles of dioleoylphosphatidylcholine, 3.85 micromoles of cholesterol, 1.28 micromoles of dioleoylphosphatidylglycerol and 1.28 micromoles of dimyristoylphosphatidyl-azidothymidine were mixed in a sterile 2.0 ml glass vial and the solvent was removed in vacuo in a rotary evaporator. In some experiments, dimyristoylphosphatidylazidothymidine was replaced with either dimyristoylphosphatidyldideoxythymidine, dimyristoylphosphatidyldideoxycytidine or azidothymidine diphosphate dimyristoylglycerol; control liposomes were prepared by omitting the antiviral liponucleotide. The dried film was placed under high vacuum overnight at room temperature to remove traces of solvent. The lipid film was hydrated at 30° C. with 0.3 ml of sterile 10 mM sodium acetate buffer (pH 5.0) containing isotonic dextrose and the ampule was sealed. The mixture was vortexed intermittently for 10 minutes followed by sonication using a Heat Systems Ultrasonics sonicator with a cup horn generator (431B) at output control setting #9 for 90 to 120 minutes at which time the sample is clarified. This sonicated preparation was diluted with sterile RPMI buffer and added to the tissue culture wells at the concentration indicated.
(§1) The human T lymphoblastoid cell line, CCRG-CEM (hereafter referred to as CEM), was grown in RPMI 1640 medium containing 100 U/ml penicillin G, 100 ug/ml streptomycin, 2 mM glutamine and 10% fetal bovine serum (Hyclone Laboratories, Logan, Utah). Cells were infected with the LAV-1 strain (L. Montagnier, Paris, France) at a multiplicity of infection of one tissue culture 50% infectious dose (TCID50)/cell for 60 minutes at 37° C. in medium containing […]. CEM cells were infected in suspension at 6×10^4 cells/ml, washed three times by centrifugation and resuspension and then distributed in 96-well plates at 6×10^4 cells/well before addition of medium containing the liposomal antiretroviral liponucleotide drugs.
(§2) Antiviral activity was assayed after 3 days by the inhibition of the production of HIV p24 (gag) antigen in the cell free culture medium of the infected cells exposed to different concentrations of drug; p24 antigen was measured by ELISA (Abbott Laboratories, Chicago, Ill.) according to the manufacturer's instructions. The data are the average of two determinations and are expressed as percentage of a control incubated in the absence of drugs.

[4] = tested on: HIV in CEM tk- cells; assay: Inhibition of HIV p24 production in thymidine kinase deficient CEM tk- cells; type: cell-based; details: Experiment H637-1b, AZT 0.2 to 100 uM
Protocol: as §1, §2
In this experiment, CEM cells were replaced with mutant cells (provided by Dr. Dennis Carson, Scripps Clinic, San Diego, Calif.) which lack the thymidine kinase enzyme (CEM tk−).

[5] = tested on: HIV in CEM (wild type) cells; assay: Experiment I276: antiviral protection of CEM cells by preincubation, p24 in supernates; type: cell-based; details: 3 day preincubation; 24 and 48 hours in normal media after removal of drug
Protocol: The cells were then washed twice with PBS, and fresh RPMI media added. Each group of cells was then divided into three batches. One batch was immediately infected with HIV, as noted above; after washing away unattached HIV, the sample was allowed to incubate in media alone for 3 days. Two other batches were allowed to incubate in media alone for either 24 or 48 hours to allow any intracellular antiviral agent present to become depleted. Then they were infected with HIV, the cells washed free of virus, and fresh RPMI media added. After 3 days of further incubation, the supernates of all batches were tested for the presence of p24 protein.
CEM cells were subjected to HIV infection without preincubation; drug was added following HIV infection as indicated, and the cells were incubated for 3 days.
After a further incubation for 3 days, p24 was measured.

[6] = 10 uM liponucleotide in liposomes, 3 day incubation
[7] = Experiment H533-1, liposomes containing 10 mole percent liponucleotide, p24 after 3 days, read-out: amount of drug required to reduce virus production by 50% (E.D. 50)
[8] = Experiment H805-1, liposomes, p24, read-out: ED50 (the source's name)

SMILES: CCCCCCCCCCCCCCCCCC(=O)OCC(O)COP(=O)(O)OC[C@H]1O[C@@H](n2cc(C)c(=O)[nH]c2=O)C[C@@H]1N=[N+]=[N-] (mixture of isomers) [Example 7, 1-O-stearoylglycero-rac-3-phospho-5′-(3′-azido-3′-deoxy)thymidine]
- % of Untreated Control ([1]; 0.0316 uM): 78%
- Plaques, Average ([1]; 0.0316 uM): 43
- % of Untreated Control ([1]; 0.100 uM): 71%
- Plaques, Average ([1]; 0.100 uM): 39
- % of Untreated Control ([1]; 0.316 uM): 58%
- Plaques, Average ([1]; 0.316 uM): 32
- % of Untreated Control ([1]; 1.0 uM): 29%
- Plaques, Average ([1]; 1.0 uM): 16
- % of Untreated Control ([1]; 3.16 uM): 13%
- Plaques, Average ([1]; 3.16 uM): 7
- % of Untreated Control [1, 6]: 2%
- Plaques, Average [1, 6]: 1
- IC50 ([1]; HT4-6C cells infected with LAV-1, liposomes, read-out: concentration required to produce 50% inhibition of HIV plaque formation): ~350 nM

SMILES: CCCCCCCCCCCCCC(=O)OCC(COP(=O)(O)OCCOCn1cnc2c(=O)[nH]c(N)nc21)OC(=O)CCCCCCCCCCCCC (stereo in doubt) [PhosphatidylACV, dimyristoylphosphatidylacycloguanosine]
- IC50 [2]: 2000 nM
- % no Drug ([2]; PhosphatidylACV 0.84 uM): 91%
- plaques (determinations 1 and 2) ([2]; PhosphatidylACV 0.84 uM): 24 and 26
- plaques, mean ([2]; PhosphatidylACV 0.84 uM): 25
- % no Drug ([2]; PhosphatidylACV 1.67 uM): 67%
- plaques (determinations 1 and 2) ([2]; PhosphatidylACV 1.67 uM): 17 and 20
- plaques, mean ([2]; PhosphatidylACV 1.67 uM): 18.5
- % no Drug ([2]; PhosphatidylACV 3.3 uM): 40%
- plaques (determinations 1 and 2) ([2]; PhosphatidylACV 3.3 uM): 10 and 12
- plaques, mean ([2]; PhosphatidylACV 3.3 uM): 11
- % no Drug ([2]; PhosphatidylACV 6.7 uM): 27%
- plaques (determinations 1 and 2) ([2]; PhosphatidylACV 6.7 uM): 6 and 9
- plaques, mean ([2]; PhosphatidylACV 6.7 uM): 7.5
- % no Drug ([2]; PhosphatidylACV 13.4 uM): 18%
- plaques (determinations 1 and 2) ([2]; PhosphatidylACV 13.4 uM): 4 and 6
- plaques, mean ([2]; PhosphatidylACV 13.4 uM): 5
- % no Drug ([2]; PhosphatidylACV 27 uM): 9%
- plaques (determinations 1 and 2) ([2]; PhosphatidylACV 27 uM): 2 and 3
- plaques, mean ([2]; PhosphatidylACV 27 uM): 2.5
- % no Drug ([2]; PhosphatidylACV 54 uM): 0%
- plaques (determinations 1 and 2) ([2]; PhosphatidylACV 54 uM): 0
- plaques, mean ([2]; PhosphatidylACV 54 uM): 0
- % no Drug ([2]; PhosphatidylACV 107 uM): 0%
- plaques (determinations 1 and 2) ([2]; PhosphatidylACV 107 uM): 0
- plaques, mean ([2]; PhosphatidylACV 107 uM): 0

SMILES: Nc1nc2c(ncn2COCCO)c(=O)[nH]1 [Acyclovir, Acycloguanosine, reference compound]
- % no Drug ([2]; Acyclovir 0.155 uM): 73%
- plaques (determinations 1 and 2) ([2]; Acyclovir 0.155 uM): 18 and 22
- plaques, mean ([2]; Acyclovir 0.155 uM): 20
- % no Drug ([2]; Acyclovir 0.31 uM): 65%
- plaques (determinations 1 and 2) ([2]; Acyclovir 0.31 uM): 17 and 19
- plaques, mean ([2]; Acyclovir 0.31 uM): 20
- % no Drug ([2]; Acyclovir 0.625 uM): 26%
- plaques (determinations 1 and 2) ([2]; Acyclovir 0.625 uM): 8 and 6
- plaques, mean ([2]; Acyclovir 0.625 uM): 7
- % no Drug ([2]; Acyclovir 1.25 uM): 13%
- plaques (determinations 1 and 2) ([2]; Acyclovir 1.25 uM): 4 and 3
- plaques, mean ([2]; Acyclovir 1.25 uM): 3.5
- % no Drug ([2]; Acyclovir 2.5 uM): 0%
- plaques (determinations 1 and 2) ([2]; Acyclovir 2.5 uM): 0
- plaques, mean ([2]; Acyclovir 2.5 uM): 0
- % no Drug ([2]; Acyclovir 5 uM): 0%
- plaques (determinations 1 and 2) ([2]; Acyclovir 5 uM): 0
- plaques, mean ([2]; Acyclovir 5 uM): 0
- % no Drug ([2]; Acyclovir 10 uM): 0%
- plaques (determinations 1 and 2) ([2]; Acyclovir 10 uM): 0
- plaques, mean ([2]; Acyclovir 10 uM): 0
- IC50 ([2]; Human alphaherpesvirus 1): 400 nM

SMILES: Cc1cn([C@H]2C[C@H](N=[N+]=[N-])[C@@H](CO)O2)c(=O)[nH]c1=O [Example N1, 3′-azido-3′-deoxythymidine, reference compound]
- effectiveness in reducing p24, free AZT versus liponucleotide ([3]; Experiment H747-1a, low concentrations below 0.1 uM): more effective than the liponucleotide
- effect on p24 production [4]: completely without effect
- protection from HIV after removal of the drug [5]: failed to protect the cells from HIV infection

SMILES: Cc1cn([C@H]2CC[C@@H](CO)O2)c(=O)[nH]c1=O [Example N2, 2′,3′-dideoxythymidine, reference compound]
- inhibition of HIV p24 production [3]: weak inhibitor of HIV p24 production

SMILES: CCCCCCCCCCCCCC(=O)OC[C@H](COP(=O)(O)OC[C@H]1O[C@@H](n2cc(C)c(=O)[nH]c2=O)C[C@@H]1N=[N+]=[N-])OC(=O)CCCCCCCCCCCCC [LN1, 1,2-Dimyristoylglycerophospho-5′-(3′-azido-3′-deoxy)thymidine, Monosodium Salt]
- EC50 [3, 7]: 2000 nM
- effectiveness in reducing p24, phosphatidylAZT liposomes versus free AZT ([3]; Experiment H747-1a, concentrations ranging from 2 to 170 uM): more effective than the free AZT
- effect on p24 production [4]: capable of reducing p24 production
- protection from HIV after removal of the drug [5]: complete protection from HIV replication

SMILES: CCCCCCCCCCCCCC(=O)OC[C@@H](COP(=O)(O)OC[C@@H]1CC[C@H](n2cc(C)c(=O)[nH]c2=O)O1)OC(=O)CCCCCCCCCCCCC [LN2, 1,2-Dimyristoylglycerophospho-5′-(3′-deoxy)thymidine, Monosodium Salt]
- EC50 [3, 7]: 30000 nM
- inhibition of HIV p24 production [3]: somewhat more effective than the free nucleoside
- EC50 [3, 8]: 20000 nM
- effect on p24 production [4]: capable of reducing p24 production

SMILES: CCCCCCCCCCCCCC(=O)OCC(COP(=O)(O)OCC1CCC(n2ccc(N)nc2=O)O1)OC(=O)CCCCCCCCCCCCC (stereo not shown) [LN3, 1,2-dimyristoylglycerophospho-5′-(3′-dideoxy)cytidine]
- EC50 [3, 8]: 1100 nM

SMILES: CCCCCCCCCCCCCC(=O)OCC(COP(=O)(O)OP(=O)(O)OCC1OC(n2cc(C)c(=O)[nH]c2=O)CC1N=[N+]=[N-])OC(=O)CCCCCCCCCCCCC (stereo not shown) [LN4, azidothymidine diphosphate dimylristoylglycerol]
- EC50 [3, 7]: 8000 nM

SMILES: CCCCCCCCCCCCCCCC(=O)OC[C@H]1O[C@@H](n2cc(C)c(=O)[nH]c2=O)C[C@@H]1N=[N+]=[N-] [PalmitoylAZT, 5′-palmitoyl(3′-deoxy-3′-azido)thymidine]
- plaques ([1]; 0.8 uM in liposomes, 176 in the untreated control): 134
- inhibition of plaque formation ([1]; 0.8 uM in liposomes, LAV-1 infected HT4-6C cells): 25%
